Data reported in US10874743B2, “IRAK degraders and uses thereof” (Kymera Therapeutics, Inc., priority 2017, dated 2020).
Where “and” joins values, the source holds several entries; their conditions need not be identical. Identical values can stand only once. Like-named read-outs stand apart in the source and are kept apart here.

Experiment: Pharmacokinetics in CD-1 mice (plasma concentrations, PK parameters)
Format: in vivo
Description: Pharmacokinetics for I-127, I-172 and I-210 were determined in Sprague Dawley rats or CD-1 mice by dosing intravenous (IV), subcutaneous (SC) or per oral (PO) using facility SOPs and sampling plasma at required time points. Species, formulation, route of administration and time points samples are listed below for each compound.
Compounds were extracted from plasma, injected on reverse phase HPLC, eluted with a gradient from 5% to 95% acetonitrile in water and quantified by mass spectrometry with internal standard. Data are expressed in ng compound per mL of plasma.

[1] = mouse (CD1) iv 2 mg/kg, individual Mouse 1-3, 2 mg/kg
[2] = mouse (CD1) po 30 mg/kg, individual Mouse 4-6, 30 mg/kg
[3] = mouse (CD1) sc 30 mg/kg, individual Mouse 7-9, 30 mg/kg

Tmax (CD-1, mouse, plasma, sc, 30 mg/kg, mouse (CD1) sc 30 mg/kg, Mean, read-out: Tmax): 2.33 h
half-life (CD-1, mouse, plasma, sc, 30 mg/kg, mouse (CD1) sc 30 mg/kg, individual Mouse 7-9): 260 min
AUC(0-inf) (CD-1, mouse, plasma, sc, 30 mg/kg, mouse (CD1) sc 30 mg/kg, individual Mouse 7-9, read-out: AUCInf): 1000 ng·h/mL
AUC(0-t) (CD-1, mouse, plasma, sc, 30 mg/kg, mouse (CD1) sc 30 mg/kg, individual Mouse 7-9, read-out: AUClast): 980 ng·h/mL
Cmax (CD-1, mouse, plasma, sc, 30 mg/kg, mouse (CD1) sc 30 mg/kg, individual Mouse 7-9, read-out: Cmax): 107 ng/mL
MRT inf (CD-1, mouse, plasma, sc, 30 mg/kg, mouse (CD1) sc 30 mg/kg, individual Mouse 7-9, read-out: MRTInf_obs): 6.06 h
Concentration (mouse (CD1) iv 2 mg/kg, 5 min, individual Mouse 1-3, 2 mg/kg): 495 ng/mL and 692 ng/mL
Concentration (mouse (CD1) iv 2 mg/kg, 0.25 h, individual Mouse 1-3, 2 mg/kg): 382 ng/mL and 424 ng/mL
Concentration (mouse (CD1) iv 2 mg/kg, 0.5 h, individual Mouse 1-3, 2 mg/kg): 238 ng/mL and 306 ng/mL
Concentration (mouse (CD1) iv 2 mg/kg, 1 h, individual Mouse 1-3, 2 mg/kg): 164 ng/mL and 195 ng/mL
Concentration (mouse (CD1) iv 2 mg/kg, 2 h, individual Mouse 1-3, 2 mg/kg): 92.5 ng/mL and 90.7 ng/mL
Concentration (mouse (CD1) iv 2 mg/kg, 4 h, individual Mouse 1-3, 2 mg/kg): 20.2 ng/mL and 25.6 ng/mL
Concentration (mouse (CD1) iv 2 mg/kg, 8 h, individual Mouse 1-3, 2 mg/kg): 4.92 ng/mL and 4.93 ng/mL
Concentration (mouse (CD1) iv 2 mg/kg, 24 h, individual Mouse 1-3): BLOQ
AUC_%Extrap_obs (mouse (CD1) iv 2 mg/kg, Mean): 1.66%
AUClast/D (mouse (CD1) iv 2 mg/kg, Mean): 331 h·ng/mL per mg/kg
Cl_obs (mouse (CD1) iv 2 mg/kg, Mean): 49.9 mL/min/kg
Vss_obs (mouse (CD1) iv 2 mg/kg, Mean): 4.48 L/kg
AUCInf [1]: 597 ng·h/mL and 706 ng·h/mL
AUC_%Extrap_obs [1]: 1.76% (2×) and 1.47%
AUClast [1]: 586 ng·h/mL and 695 ng·h/mL
AUClast/D [1]: 351 h·ng/mL per mg/kg and 293 h·ng/mL per mg/kg and 348 h·ng/mL per mg/kg
C0 [1]: 563 ng/mL and 884 ng/mL
MRTInf_obs [1]: 1.41 h
T1/2 [1]: 1.48 h and 1.46 h
Vss_obs [1]: 4.42 L/kg and 5.04 L/kg and 4.00 L/kg
Concentration (mouse (CD1) po 30 mg/kg, 0.25 h, individual Mouse 4-6, 30 mg/kg): 55.9 ng/mL and 23.7 ng/mL and 12.8 ng/mL
Concentration (mouse (CD1) po 30 mg/kg, 0.5 h, individual Mouse 4-6, 30 mg/kg): 120 ng/mL and 23.0 ng/mL and 22.2 ng/mL
Concentration (mouse (CD1) po 30 mg/kg, 1 h, individual Mouse 4-6, 30 mg/kg): 153 ng/mL and 16.9 ng/mL and 45.1 ng/mL
Concentration (mouse (CD1) po 30 mg/kg, 2 h, individual Mouse 4-6, 30 mg/kg): 91.1 ng/mL and 112 ng/mL
Concentration (mouse (CD1) po 30 mg/kg, 4 h, individual Mouse 4-6, 30 mg/kg): 143 ng/mL and 123 ng/mL
Concentration (mouse (CD1) po 30 mg/kg, 8 h, individual Mouse 4-6, 30 mg/kg): 34.8 ng/mL and 17.1 ng/mL and 16.4 ng/mL
Concentration (mouse (CD1) po 30 mg/kg, 24 h, individual Mouse 4-6): BLOQ
AUC_%Extrap_obs (mouse (CD1) po 30 mg/kg, Mean): 9.8%
AUClast/D (mouse (CD1) po 30 mg/kg, Mean): 22.5 h·ng/mL per mg/kg
F (mouse (CD1) po 30 mg/kg, Mean): 7.47%
AUCInf [2]: 681 ng·h/mL and 662 ng·h/mL
AUC_%Extrap_obs [2]: 14.2% and 7.97% and 7.15%
AUClast [2]: 627 ng·h/mL and 615 ng·h/mL
AUClast/D [2]: 26.2 h·ng/mL per mg/kg and 20.9 h·ng/mL per mg/kg and 20.5 h·ng/mL per mg/kg
Cmax [2]: 143 ng/mL and 123 ng/mL
F [2]: 9.09% and 6.76% and 6.57%
MRTInf_obs [2]: 4.24 h and 3.97 h
T1/2 [2]: 2.20 h and 2.00 h
Concentration (mouse (CD1) sc 30 mg/kg, 0.25 h, individual Mouse 7-9, 30 mg/kg): 93.0 ng/mL and 70.1 ng/mL
Concentration (mouse (CD1) sc 30 mg/kg, 0.5 h, individual Mouse 7-9, 30 mg/kg): 101 ng/mL and 66.6 ng/mL
Concentration (mouse (CD1) sc 30 mg/kg, 1 h, individual Mouse 7-9, 30 mg/kg): 107 ng/mL and 76.5 ng/mL
Concentration (mouse (CD1) sc 30 mg/kg, 2 h, individual Mouse 7-9, 30 mg/kg): 115 ng/mL and 81.1 ng/mL
Concentration (mouse (CD1) sc 30 mg/kg, 4 h, individual Mouse 7-9, 30 mg/kg): 91.8 ng/mL and 105 ng/mL
Concentration (mouse (CD1) sc 30 mg/kg, 8 h, individual Mouse 7-9, 30 mg/kg): 49.0 ng/mL and 42.0 ng/mL
Concentration (mouse (CD1) sc 30 mg/kg, 24 h, individual Mouse 7-9, 30 mg/kg): 2.88 ng/mL and 2.05 ng/mL
AUC_%Extrap_obs (mouse (CD1) sc 30 mg/kg, Mean): 1.60%
AUClast/D (mouse (CD1) sc 30 mg/kg, Mean): 33.9 h·ng/mL per mg/kg
F (mouse (CD1) sc 30 mg/kg, Mean): 10.3%
AUCInf [3]: 1119 ng·h/mL and 983 ng·h/mL
AUC_%Extrap_obs [3]: 2.26% and 1.48% and 1.07%
AUClast [3]: 1102 ng·h/mL and 973 ng·h/mL
AUClast/D [3]: 32.7 h·ng/mL per mg/kg and 36.7 h·ng/mL per mg/kg and 32.4 h·ng/mL per mg/kg
Cmax [3]: 115 ng/mL and 105 ng/mL
F [3]: 9.94% and 11.1% and 9.75%
MRTInf_obs [3]: 5.82 h and 5.73 h
T1/2 [3]: 3.98 h and 3.56 h
Tmax [3]: 1 h
Compound: O=C1CCC(N2C(=O)c3cccc(NCCOCCOCCNCc4ccc(-n5cc(NC(=O)c6coc(-c7ccnc(NCC8CC8)c7)n6)c(C(F)F)n5)cc4)c3C2=O)C(=O)N1 (stereo not shown) [I-210, 2-[2-(Cyclopropylmethylamino)-4-pyridyl]-N-[3-(difluoromethyl)-1-[4-[[2-[2-[2-[[2-(2,6-dioxo-3-piperidyl)-1,3-dioxoisoindolin-4-yl]amino]ethoxy]ethoxy]ethylamino]methyl]phenyl]pyrazol-4-yl]oxazole-4-carboxamide]
Cl_obs [1]: 46.7 mL/min/kg and 55.8 mL/min/kg and 47.2 mL/min/kg
